Read-outs that look alike come from different tables or passages of the source.
Experiments:
HIV = type: cell-based; conditions: EC50 in the presence of human serum (25%) versus without human serum, MT-4 cells
Protocol: To confirm the influence of human serum on anti-HIV activity as necessary, human serum was added and determined EC50 in this condition. Human serum (100 μL/well) was dispensed into each anti-HIV active substance at a designated concentration dispensed 50 μL each in advance into a 96-well microtiter plate, and the plate was incubate at room temperature for 1 hour. To the serum-free plate, only culture medium (100 μL/well) was dispensed into 96-well microtiter plate. MT-4 cells (3×10^4 cells/well) was infected with 3 μL/well of HIV solution diluted to an appropriate concentration (600 pfu/50 μL) by the required number of wells and incubated at 37° C. for 1 hour. The infected cells were centrifuged at 1200 rpm for 5 minutes, the supernatant was discarded, and the infected cells were dispersed into culture medium for the required number of wells at 50 μL/well. Infected cell suspension was dispensed into a 96-well microtiter plate of which anti-HIV active substance and human serum prepared in advance. The cell mixture was mixed with a plate mixer and cultured in a CO2 incubator for 4 days. The EC50 in the presence of human serum was calculated in the same manner as in Test Example 1 and the ratio of EC50 in the presence of human serum and EC50 in the absence of human serum was calculated as the potency shift value. […]

[1] = test system: T125A mutant virus (HIV-1 NL-432 recombinant molecular clone, IN gene); test: HIV replication inhibition assay against integrase 124/125 mutant virus (Test Example 2); type: cell-based
Summary of the method: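 MT-4 cells (2.5×10^4 per well) infected with 60 pfu of 293T-derived HIV-1 NL-432 clone carrying integrase 124/125 point mutations, in presence of compound, cultured 4 days at 37 °C. Viability by MTT formazan at 560/690 nm; EC50 = concentration inhibiting 50% of virus-induced cytotoxicity.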

[2] = Human immunodeficiency virus 1, MT4, read-out: EC50 against T125A mutant virus, T125A mutant virus (HIV-1 NL-432 IN gene), MT-4 cells, MTT
[3] = T125A mutant virus (HIV-1 NL-432 IN gene), MT-4 cells, MTT, read-out: EC50 against T125A mutant virus

SMILES | Potency shift value (HIV) | EC50 [1, 2] [nM] | EC50 [1, 3] [nM] | EC50 ([1]; read-out: EC50 against T125A mutant virus, T125A mutant virus (HIV-1 NL-432 IN gene), MT-4 cells, MTT) [nM]
Cc1ccc(-c2c([C@H](OC(C)(C)C)C(=O)O)c(C)c3c4c2cc(C)n4CCN3c2ncc(CCN3CCN(C)CC3)cn2)cc1 [Compound I-351] | 5.5 | 17 |  | 
COc1cccc(N2CCn3c(C)cc4c(-c5ccc(Cl)cc5)c([C@H](OC(C)(C)C)C(=O)O)c(C)c2c43)n1 [Compound I-194] | 13 | 12 |  | 
Cc1ccc(-c2c([C@H](OC(C)(C)C)C(=O)O)c(C)c3c4c2cc(C)n4CCN3c2ncc(N3C[C@@H](C)O[C@@H](C)C3)cn2)cc1 [Compound I-316] | 17 | 6.6 |  | 
Cc1ccc(-c2c([C@H](OC(C)(C)C)C(=O)O)c(C)c3c4c2cc(C)n4CCN3c2ccc3ncccc3n2)cc1 [Compound I-289] | 15 | 35 |  | 
CCOCCN1CCn2c(C)cc3c(-c4ccc(C)cc4)c([C@H](OC(C)(C)C)C(=O)O)c(C)c1c32 [Compound I-207] | 8.1 |  | 19 | 
Cc1c([C@H](OC(C)(C)C)C(=O)O)c(-c2ccc(Cl)cc2)c2cc(C)n3c2c1N(C)CC3c1ccccc1 (stereo partly drawn) [Compound I-331] | 7 |  |  | 92
COc1ccc(N2CCn3c(C)cc4c(-c5ccc(C)cc5)c([C@H](OC(C)(C)C)C(=O)O)c(C)c2c43)nn1 [Compound I-328] | 4.2 | 51 |  | 
Cc1ccc(-c2c([C@H](OC(C)(C)C)C(=O)O)c(C)c3c4c2cc(C)n4CCN3c2ncc(CCO)cn2)cc1 [Compound I-335] | 36 | 14 |  | 
Cc1ccc(-c2c([C@H](OC(C)(C)C)C(=O)O)c(C)c3c4c2cc(C)n4CCN3c2ncc(CCN(C)C)cn2)cc1 [Compound I-337] | 3.6 | 28 |  | 
Cc1c([C@H](OC(C)(C)C)C(=O)O)c(-c2ccc(Cl)cc2)c2cc(C)n3c2c1N(c1ncc(N2CCCC2)cn1)CC3 [Compound I-252] | 23 | 8.5 |  | 
Cc1ccc(-c2c([C@H](OC(C)(C)C)C(=O)O)c(C)c3c4c2cc(C)n4CCN3c2ncc(Oc3nc(C)nc4ccccc34)cn2)cc1 [Compound I-343] | 11 | 21 |  | 
Cc1ccc(-c2c([C@H](OC(C)(C)C)C(=O)O)c(C)c3c4c2cc(C)n4CCN3c2ncc(C3=CCN(C)CC3)cn2)cc1 [Compound I-212] | 3.9 |  | 6.8 | 
Cc1ccc(-c2c([C@H](OC(C)(C)C)C(=O)O)c(C)c3c4c2cc(C)n4CCN3c2ncc(Oc3ccnc4ccccc34)cn2)cc1 [Compound I-340] | 18 | 15 |  | 
Cc1c([C@H](OC(C)(C)C)C(=O)O)c(-c2ccc(Cl)cc2)c2cc(C)n3c2c1N(c1cccc(=O)n1C)CC3 [Compound I-219] | 7.6 |  | 43 | 
Cc1ccc(-c2c([C@H](OC(C)(C)C)C(=O)O)c(C)c3c4c2cc(C)n4CCN3c2cccc(F)n2)cc1 [Compound I-286] | 14 | 15 |  | 
Cc1c(-c2c([C@H](OC(C)(C)C)C(=O)O)c(C)c3c4c2cc(C)n4CCN3C)cc(F)c2c1CCCO2 [Compound I-159] | 8.8 | 16 |  | 
CCOCc1cnc(N2CCn3c(C)cc4c(-c5ccc(Cl)cc5)c([C@H](OC(C)(C)C)C(=O)O)c(C)c2c43)nc1 [Compound I-314] | 41 | 5.3 |  | 
Cc1ccc(-c2c([C@H](OC(C)(C)C)C(=O)O)c(C)c3c4c2cc(C)n4CCN3c2nc(C)ns2)cc1 [Compound I-329] | 15 | 19 |  | 
Cc1ccc(-c2c(C(OC(C)(C)C)C(=O)O)c(C#N)c3c4c2cc(C)n4CCN3C)cc1 (stereo not drawn) [Compound I-186] | 15 | 20 |  | 
Cc1c([C@H](OC(C)(C)C)C(=O)O)c(-c2cc3ccccc3s2)c2cc(C)n3c2c1N(CCN(C)C)CC3 [Compound I-319] | 3.4 | 87 |  | 

SMILES | Potency shift value (HIV) | EC50 [1, 2] [nM] | EC50 [1, 3] [nM] | EC50 ([1]; read-out: EC50 against T125A mutant virus, T125A mutant virus (HIV-1 NL-432 IN gene), MT-4 cells, MTT) [nM]
Cc1c([C@H](OC(C)(C)C)C(=O)O)c(-c2ccc(Cl)cc2)c2cc(C)n3c2c1C=CC3 [Compound I-174] | 14 | 55 |  | 
Cc1ccc(-c2c([C@H](OC(C)(C)C)C(=O)O)c(C)c3c4c2cc(C)n4CCN3c2ncc(OCCCO)cn2)cc1 [Compound I-284] | 17 | 3.6 |  | 
Cc1ccc(-c2c([C@H](OC(C)(C)C)C(=O)O)c(C)c3c4c2cc(C)n4CCN3c2ncc(Oc3nccc4ccccc34)cn2)cc1 [Compound I-344] | 33 | 17 |  | 
Cc1ccc(-c2c([C@H](OC(C)(C)C)C(=O)O)c(C)c3c4c2cc(C)n4CCN3c2cnc(C)cn2)cc1 [Compound I-264] | 26 | 4.4 |  | 
COCCOc1cnc(N2CCn3c(C)cc4c(-c5ccc(Cl)cc5)c([C@H](OC(C)(C)C)C(=O)O)c(C)c2c43)nc1 [Compound I-234] | 19 | 3.6 |  | 
Cc1ccc(-c2c([C@H](OC(C)(C)C)C(=O)O)c(C)c3c4c2cc(C)n4CCN3c2ncc(Oc3ccc4ccccc4n3)cn2)cc1 [Compound I-338] | 18 | 21 |  | 
CNCCOc1cnc(N2CCn3c(C)cc4c(-c5ccc(C)cc5)c([C@H](OC(C)(C)C)C(=O)O)c(C)c2c43)nc1 [Compound I-224] | 3.3 |  | 79 | 
Cc1c([C@H](OC(C)(C)C)C(=O)O)c(-c2c(F)cc(F)cc2F)c2cc(C)n3c2c1N(C)CC3 [Compound I-191] | 7.4 | 13 |  | 
Cc1ccc(-c2c([C@H](OC(C)(C)C)C(=O)O)c(C)c3c4c2cc(C)n4CCN3CC(F)F)cc1 [Compound I-281] | 23 | 17 |  | 
Cc1ccc(-c2c([C@H](OC(C)(C)C)C(=O)O)c(C)c3c4c2cc(C)n4CCN3CCN2CCCC2)cc1 [Compound I-130] | 2.7 | 27 |  | 
COCCOC(=O)Nc1cnc(N2CCn3c(C)cc4c(-c5ccc(C)cc5)c([C@H](OC(C)(C)C)C(=O)O)c(C)c2c43)nc1 [Compound I-203] | 30 |  | 13 | 
Cc1ccc(-c2c([C@H](OC(C)(C)C)C(=O)O)c(Cl)c3c4c2cc(C)n4CCN3c2nc3c(s2)CN(C)CC3)cc1 [Compound I-353] | 10 | 15 |  | 
Cc1ccc(-c2c([C@H](OC(C)(C)C)C(=O)O)c(C)c3c4c2cc(C)n4CCN3CCN2CCC(F)(F)C2)cc1 [Compound I-162] | 7.5 | 35 |  | 
COc1cnc(N2CCn3c(C)cc4c(-c5ccc(C)cc5)c([C@H](OC(C)(C)C)C(=O)O)c(C)c2c43)cn1 [Compound I-275] | 18 | 13 |  | 
Cc1c([C@H](OC(C)(C)C)C(=O)O)c(-c2ccc(Cl)cc2)c2cc(C)n3c2c1N(C(N)=O)CC3 [Compound I-173] | 4 | 71 |  | 
COc1cnc(N2CCn3c(C)cc4c(-c5ccccc5)c([C@H](OC(C)(C)C)C(=O)O)c(C)c2c43)nc1 [Compound I-231] | 22 | 10 |  | 
Cc1ccc(-c2c([C@H](OC(C)(C)C)C(=O)O)c(C)c3c4c2cc(C)n4CCN3CC2COC2)cc1 [Compound I-211] | 7.5 |  | 20 | 
Cc1c([C@H](OC(C)(C)C)C(=O)O)c(-c2ccc(Cl)cc2)c2cc(C)n3c2c1OCCC3 [Compound I-188] | 11 | 14 |  | 
Cc1ccc(-c2c([C@H](OC(C)(C)C)C(=O)O)c(C)c3c4c2cc(C)n4CCN3c2nc3ccccc3n2C)cc1 [Compound I-251] | 9.6 | 4.2 |  | 

From patent US10494380B2, “Nitrogen-containing tricyclic derivatives having HIV replication inhibitory activity” (priority 2015, dated 2019)
